Laboratory results published in patent US11964052B2, “Lipid compounds and lipid nanoparticle compositions” (SUZHOU ABOGEN BIOSCIENCES CO., LTD., priority 2021, dated 2024).

What was measured:
Assay type in all cases: physicochemical
[1] = Lipid nanoparticle size and polydispersity by dynamic light scattering (Malvern Zetasizer Nano ZS); conditions: LNP of cationic lipid/DSPC/cholesterol/PEG-lipid 50:10:38.5:1.5 with mRNA
Procedure: (§1) Briefly, a cationic lipid provided herein, DSPC, cholesterol, and PEG-lipid were solubilized in ethanol at a molar ratio of 50:10:38.5:1.5, and mRNA were diluted in 10 to 50 mM citrate buffer, pH=4. The LNPs were prepared at a total lipid to mRNA weight ratio of approximately 10:1 to 30:1 by mixing the ethanolic lipid solution with the aqueous mRNA solution at a volume ratio of 1:3 using a microfluidic apparatus, total flow rate ranging from 9-30 mL/min. Ethanol were thereby removed and replaced by DPBS using dialysis. Finally, the lipid nanoparticles were filtered through a 0.2 μm sterile filter.
(§2) Lipid nanoparticle size were determined by dynamic light scattering using a Malvern Zetasizer Nano ZS (Malvern UK) using a 173° backscatter detection mode. The encapsulation efficiency of lipid nanoparticles were determined using a Quant-it Ribogreen RNA quantification assay kit (Thermo Fisher Scientific, UK) according to the manufacturer's instructions.

[2] = Encapsulation efficiency of lipid nanoparticles, Quant-it Ribogreen RNA quantification assay; conditions: LNP with mRNA
Procedure: as §1, §2

[3] = Apparent pKa of LNP formulations, TNS fluorescence assay; conditions: LNP cationic lipid/DSPC/cholesterol/DMG-PEG 50/10/38.5/1.5 mol %, pH 3 to 9
Procedure: As reported in literature, the apparent pKa of LNP formulations correlates with the delivery efficiency of LNPs for nucleic acids in vivo. The apparent pKa of each formulation was determined using an assay based on fluorescence of 2-(p-toluidino)-6-napthalene sulfonic acid (TNS). LNP formulations comprising of cationic lipid/DSPC/cholesterol/DMG-PEG (50/10/38.5/1.5 mol %) in PBS were prepared as described above. TNS was prepared as a 300 uM stock solution in distilled water. LNP formulations were diluted to 0.1 mg/ml total lipid in 3 mL of buffered solutions containing 50 mM sodium citrate, 50 mM sodium phosphate, 50 mM sodium borate, and 30 mM sodium chloride where the pH ranged from 3 to 9. An aliquot of the TNS solution was added to give a final concentration of 0.1 mg/ml and following vortex mixing fluorescence intensity was measured at room temperature in a Molecular Devices Spectramax iD3 spectrometer using excitation and mission wavelengths of 325 nm and 435 nm. A sigmoidal best fit analysis was applied to the fluorescence data and the pKa value was measured as the pH giving rise to half-maximal fluorescent intensity.

Compound	polydispersity [1]	size (nm) [1]	Encapsulation Efficiency [2]	Apparant Pka [3]
CCCCCCCCCCCCOCC(CN(CCCCCC(=O)OCC(CCCCCC)CCCCCCCC)CCN(CCO)C1CCCCC1)OC(C)=O (stereo not shown) [Compound 21]	0.221	74.88 nm	85.5%	5.49
CCCCCCCCCCCCOCC(CN(CCCCCC(=O)OCC(CCCCCC)CCCCCCCC)CCN(CCO)C1CC1)OCCCCCC (stereo not shown) [Compound 22]	0.206	68.67 nm	83.5%	5.457
CCCCCCCCCCCCOCC(CN(CCCCCC(=O)OCC(CCCCCC)CCCCCCCC)CCN(CCO)C1CCC1)OCCCCCC (stereo not shown) [Compound 23]	0.076	74.73 nm	88.5%	5.993
CCCCCCCCCCCCOCC(CN(CCCCCC(=O)OCC(CCCCCC)CCCCCCCC)CCN(CCO)C1CCCC1)OCCCCCC (stereo not shown) [Compound 24]	0.094	56.39 nm	93.0%	6.005
CCCCCCCCCCCCOCC(CN(CCCCCC(=O)OCC(CCCCCC)CCCCCCCC)CCN(CCO)C1CCCCCC1)OCCCCCC (stereo not shown) [Compound 26]	0.153	55.8 nm	93.30%	5.696
CCCCCCCCCCCCOCC(CN(CCCCCC(=O)OCC(CCCCCC)CCCCCCCC)CCN(CCO)C1CC1)OCCCCCCCCCCCC (stereo not shown) [Compound 27]	0.139	65.62 nm	73.3%	5.351
CCCCCCCCCCCCOCC(CN(CCCCCC(=O)OCC(CCCCCC)CCCCCCCC)CCN(CCO)C1CCC1)OCCCCCCCCCCCC (stereo not shown) [Compound 28]	0.2	54.96 nm	86.9%	5.905
CCCCCCCCCCCCOCC(CN(CCCCCC(=O)OCC(CCCCCC)CCCCCCCC)CCN(CCO)C1CCCC1)OCCCCCCCCCCCC (stereo not shown) [Compound 29]	0.110	53.73 nm	80.1%	5.699
CCCCCCCCCCCCOCC(CN(CCCCCC(=O)OCC(CCCCCC)CCCCCCCC)CCN(CCO)C1CCCCC1)OCCCCCCCCCCCC (stereo not shown) [Compound 30]	0.107	49.64 nm	92.7%	5.409
CCCCCCCCCCCCOCC(CN(CCCCCC(=O)OCC(CCCCCC)CCCCCCCC)CCN(CCO)C1CCCCCC1)OCCCCCCCCCCCC (stereo not shown) [Compound 31]	0.127	51.35 nm	80.1%	5.704
CCCCCCCCC(CCCCCC)CC(=O)OCC(CN(CCO)C1CCC1)OC(=O)CC(CCCCCC)CCCCCCCC (stereo not shown) [Compound 32]	0.232	59.1 nm	44.6%	3.519
CCCCCCCCCCCCOCC(CN(CCCCCC(=O)OCC(CCCCCC)CCCCCCCC)CCN(CCO)C1CCC1)OCCCCCCCC (stereo not shown) [Compound 33]	0.06	63.54 nm	94.30%	5.943
CCCCCCCCCCCCOCC(CN(CCCCCC(=O)OCC(CCCCCC)CCCCCCCC)CCN(CCO)C1CC1)OCCCCCCCC (stereo not shown) [Compound 34]	0.103	58.33 nm	89.60%	5.482
CCCCCCCCCCCCOCC(CN(CCCCCC(=O)OCC(CCCCCC)CCCCCCCC)CCN(CCO)C1CCCC1)OCCCCCCCC (stereo not shown) [Compound 35]	0.1	56.71 nm	96.80%	5.940
CCCCCCCCCCCCOCC(CN(CCCCCC(=O)OCC(CCCCCC)CCCCCCCC)CCN(CCO)C1CCCCC1)OCCCCCCCC (stereo not shown) [Compound 36]	0.078	59.91 nm	94.20%	5.774
CCCCCCCCCCCCOCC(CN(CCCCCC(=O)OCC(CCCCCC)CCCCCCCC)CCN(CCO)C1CCCCCC1)OCCCCCCCC (stereo not shown) [Compound 37]	0.156	51.77 nm	92.70%	5.726
CCCCCCCCCCCCOCC(CN(C)CCN(CCO)C1CCC1)OCCCCCC (stereo not shown) [Compound 38]	0.194	97.62 nm	76.2%	6.971
CCCCCCCCCCCCOCC(CN(C)CCN(CCO)C1CCC1)OCCCCCCCCCCCC (stereo not shown) [Compound 39]	0.162	111.2 nm	94.7%	6.712
CCCCCCCCCCCCOCC(CN(C)CCO)OC(=O)CCCCCCCCCCC (stereo not shown) [Compound 41]	0.136	82.81 nm	83.5%	5.746
CCCCCCCCCCCCOCC(CN(C)CCN(CCO)C1CCC1)OC(=O)CCCCCCCCCCC (stereo not shown) [Compound 42]	0.155	82.81 nm	94.4%	6.283
CCCCCCCCCOC(=O)CCOCC(CN(C)CCN(CCO)C1CCC1)OCCC(=O)OCCCCCCCCC (stereo not shown) [Compound 43]	0.362	138.6 nm	78.4%	7.227
CCCCCCCCCCCCOCC(CN(C)CCN(CCO)C1CCC1)OC(=O)CCCCC (stereo not shown) [Compound 44]	0.178	112.8 nm	85.2%	6.65
CCCCCCCCCCCCOCC(CN(C)CCN(CCO)C1CCCCC1)OCCCCCC (stereo not shown) [Compound 45]	0.289	68.33 nm	86.8%	7.466
CCCCCCCCCCCCCCCCCCOCC(CN(CCCCCC(=O)OCCCCCCCCCC)CCN(CCO)C1CCC1)OCCCCCC (stereo not shown) [Compound 46]	0.039	103.3 nm	95.9%	6.047
CCCCCCCCCCCCCCOC(COCCCCCCCCCCCC)CN(CCCCCC(=O)OCCCCCCCCCC)CCN(CCO)C1CCC1 (stereo not shown) [Compound 47]	0.082	82.89 nm	91.3%	6.120
CCCCCCCCCCCCOCC(CN(CCCCCC(=O)OCCCCCCCCCC)CCN(CCO)C1CCC1)OCCCCCCCC (stereo not shown) [Compound 48]	0.113	79.39 nm	91.7%	6.263
CCCCCCCCCCCCOCC(CN(CCCCCC(=O)OCCCCCCCCCC)CCN(CCO)C1CCC1)OCCCCCC (stereo not shown) [Compound 49]	0.031	99.66 nm	83.7%	6.221
CCCCCCCCC(CCCCCCCC)CNC(=O)CCOCC(CN(C)CCO)OCCC(=O)NCC(CCCCCCCC)CCCCCCCC (stereo not shown) [Compound 50]	0.099	58.14 nm	90.4%	8.298
